Earlier results, collected in patent publication US20130053277A1 (priority 2010, published 2013).

Target: influenza A virus M2 ion channel, S31N mutant (Influenza A virus, UniProt P0DOF5, S31N)
Conditions: cited from earlier work

NC12CC3CC(CC(C3)C1)C2 [amantadine, Amantadine]
isochronic apparent inhibitory binding constant: 200 JLM
